Reference: ChEMBL document CHEMBL5634071, “Fluorine in anti-HIV drugs approved by FDA from 1981 to 2023” (Eur J Med Chem, 2023)

How the values were obtained:
[1] = Inhibition of HIV integrase strand transfer activity; design: species or system Human immunodeficiency virus
[2] = test system: Human immunodeficiency virus 1; test: Antiviral activity against HIV-1 infected in human MT4 cells assessed as reduction in virus induced cytopathic effect; type: functional, organism-based; conditions: Human immunodeficiency virus 1, MT4
[3] = Inhibition of HIV-1 integrase by multiple well plate integration assay; design: species or system Human immunodeficiency virus
[4] = target: Human immunodeficiency virus type 1 Gag protein (Human immunodeficiency virus 1, UniProt Q77YG1); test: Binding affinity to HIV1 Gag assessed as dissociation constant
[5] = test system: Human immunodeficiency virus 1; test: Antiviral activity against VSV-G pseudotyped HIV-1 infected in HEK293T cells assessed as inhibition of early stage viral replication preincubated with cells for 30 mins followed by viral infection for 3 hrs and measured 48 hrs after media replacement with compound by luciferase assay; type: functional, organism-based; conditions: Human immunodeficiency virus 1, HEK-293T
[6] = Metabolic stability in rhesus monkey hepatocytes assessed as half-life; type: ADME, cell-based, Macaca mulatta, Hepatocyte
[7] = Cytotoxicity against HEK293T cells incubated for 72 hrs by MTT assay; type: toxicity, cell-based, HEK-293T; conditions: human
[8] = test system: Human immunodeficiency virus 1; test: Antiviral activity HIV-1 infected in HEK293T cells assessed as inhibition of late stage viral replication; type: functional, organism-based; conditions: Human immunodeficiency virus 1, HEK-293T
[9] = test system: Human immunodeficiency virus 1; test: Antiviral activity against HIV-1 infected in human PBMC; type: functional, organism-based; conditions: Human immunodeficiency virus 1, PBMC
[10] = test system: Human immunodeficiency virus 1; test: Antiviral activity against HIV-1 LAV infected in human CEM-SS cells assessed as reduction in virus-induced cytopathic effect by XTT assay; type: functional, organism-based; conditions: Human immunodeficiency virus 1, LAV
[11] = test system: Human immunodeficiency virus 1; test: Antiviral activity against HIV-1 KELL infected in human CEM-SS cells assessed as reduction in virus-induced cytopathic effect by XTT assay; type: functional, organism-based; conditions: Human immunodeficiency virus 1, KELL
[12] = test system: Human immunodeficiency virus 1; test: Antiviral activity against HIV-1 SK-1 infected in human CEM-SS cells assessed as reduction in virus-induced cytopathic effect by XTT assay; type: functional, organism-based; conditions: Human immunodeficiency virus 1, SK-1, CEM-SS
[13] = test system: Human immunodeficiency virus 1; test: Antiviral activity against HIV-1 205 infected in human CEM-SS cells assessed as reduction in virus-induced cytopathic effect by XTT assay; type: functional, organism-based; conditions: Human immunodeficiency virus 1, 205, CEM-SS
[14] = test system: Human immunodeficiency virus 1; test: Antiviral activity against HIV-1 PM16 infected in human CEM-SS cells assessed as reduction in virus-induced cytopathic effect by XTT assay; type: functional, organism-based; conditions: Human immunodeficiency virus 1, PM16, CEM-SS
[15] = test system: Human immunodeficiency virus 1; test: Antiviral activity against HIV-1 G infected in human CEM-SS cells assessed as reduction in virus-induced cytopathic effect by XTT assay; type: functional, organism-based; conditions: Human immunodeficiency virus 1, G
[16] = test system: Human immunodeficiency virus 1; test: Antiviral activity against HIV-1 TP-1 infected in human CEM-SS cells assessed as reduction in virus-induced cytopathic effect by XTT assay; type: functional, organism-based; conditions: Human immunodeficiency virus 1, TP-1, CEM-SS
[17] = test system: Human immunodeficiency virus 1; test: Antiviral activity against HIV-1 214 infected in human CEM-SS cells assessed as reduction in virus-induced cytopathic effect by XTT assay; type: functional, organism-based; conditions: Human immunodeficiency virus 1, 214, CEM-SS
[18] = target: Human immunodeficiency virus type 1 protease (Human immunodeficiency virus 1, UniProt Q72874); test: Inhibition of HIV-1 protease expressed in Escherichia coli incubated for 90 mins by fluorescence based analysis
[19] = Oral bioavailability in rat; conditions: in vivo
[20] = test system: Human immunodeficiency virus 1; test: Antiviral activity against HIV-1 LAV infected in human CEM cells; type: functional, organism-based; conditions: Human immunodeficiency virus 1, LAV, CCRF-CEM
[21] = Cytotoxicity against lymphoblastoid cell (unknown origin); conditions: lymphoblastoid cells
[22] = test system: Human immunodeficiency virus 1; test: Antiviral activity against HIV-1 infected in human HeLa-MAGI-CCR5 cells; conditions: Human immunodeficiency virus 1, HeLa-MAGI-CCR5
[23] = Cytotoxicity against human CEM cells measured after 6 days; conditions: CEM cells (CCRF-CEM)
[24] = test system: Human immunodeficiency virus 1; test: Antiviral activity against HIV-1 infected in lymphoblastoid cell (unknown origin); conditions: Human immunodeficiency virus 1, Lymphoblastoid cell
[25] = Cytotoxicity against PBMC (unknown origin)
[26] = test system: Human immunodeficiency virus 1; test: Antiviral activity against HIV-1 infected in PBMC (unknown origin); conditions: Human immunodeficiency virus 1, PBMC
[27] = Cytotoxicity against human HeLa-MAGI-CCR5 cells
[28] = Oral bioavailability in cynomolgus monkey; conditions: in vivo
[29] = Oral bioavailability in mouse; conditions: in vivo
[30] = Binding affinity to HIV protease assessed as inhibition constant; design: species or system Human immunodeficiency virus
[31] = test system: Human immunodeficiency virus 1; test: Antiviral activity against HIV-1 IIIB infected in human H9 cells; type: functional, organism-based; conditions: Human immunodeficiency virus 1, IIIB
[32] = test system: Human immunodeficiency virus; test: Antiviral activity against HIV; type: functional, organism-based; conditions: Human immunodeficiency virus 1
[33] = test system: Human immunodeficiency virus 1; test: Antiviral activity against HIV-1 IIIB infected in human MT4 cells incubated for 7 days by ELISA; type: functional, organism-based; conditions: Human immunodeficiency virus 1, IIIB, MT4, 168 h

## O=C(NCc1c(F)cc(F)cc1F)c1cn2c(c(O)c1=O)C(=O)N1[C@H]3CC[C@H](C3)O[C@@H]1C2 [BICTEGRAVIR]
[1]
  IC50: 2.4 nM

## Cc1c(Sc2ccccc2)n(COCCO)c(=O)[nH]c1=O [HEPT]
[2]
  IC50: 7000 nM

## O=C(O)/C(O)=C/C(=O)C1C=Nc2ccc(Cl)cc21 (centres undefined)
[3]
  IC50: 2300 nM

## CC(C)(C#Cc1ccc(-c2ccc(Cl)c3c(NS(C)(=O)=O)nn(CC(F)(F)F)c23)c([C@H](Cc2cc(F)cc(F)c2)NC(=O)Cn2nc(C(F)(F)F)c3c2C(F)(F)[C@@H]2C[C@H]32)n1)S(C)(=O)=O
[4]
  Kd: 1.1 nM
[5]
  IC50: 0.055 nM
[6]
  half-life: 202 h
[7]
  CC50 at 72 h: > 50000 nM
[8]
  IC50: 0.314 nM
[9]
  IC50: 0.05 nM

## O=S1(c2ccccc2)=NC(=S)Nc2ccccc21 (centres undefined)
[10]
  IC50: 950 nM
[11]
  IC50: 950 nM
[12]
  IC50: 950 nM
[13]
  IC50: 950 nM
[14]
  IC50: 950 nM
[15]
  IC50: 950 nM
[16]
  IC50: 950 nM
[17]
  IC50: 950 nM

## CCCC(CCc1ccccc1)c1cc(O)c(C(CC)c2ccccc2)c(=O)o1 (centres undefined)
[18]
  Ki: 35 nM

## Nc1nc(=O)n([C@@H]2CS[C@H](CO)O2)cc1F [EMTRICITABINE]
[19]
  bioavailability: ~58%
[20]
  IC50: 9 nM
[21]
  CC50: > 200000 nM
[22]
  IC50: 1 nM
[23]
  CC50 at 144 h: > 100000 nM
[24]
  IC50: 1 nM
[25]
  CC50: > 200000 nM
[26]
  IC50: 1 nM
[27]
  CC50: > 200000 nM
[28]
  bioavailability: ~58%
[29]
  bioavailability: ~58%

## CCC[C@@]1(CCc2ccccc2)CC(O)=C([C@H](CC)c2cccc(NS(=O)(=O)c3ccc(C(F)(F)F)cn3)c2)C(=O)O1
[30]
  Ki: 8 nM
[31]
  IC50: 30 nM
  IC90: 100 nM
[32]
  IC50: 30 nM

## CCC(Cc1ccccc1)c1cc(O)c(C(CC)c2ccccc2)c(=O)o1 (centres undefined)
[33]
  IC50: 3000 nM
